From ChEMBL document CHEMBL6083262, “Stereorandomized Oncocins with Preserved Ribosome Binding and Antibacterial Activity” (J Med Chem, 2024)
Values after ≈ are worked out from the molar mass of the structure shown. Active and inactive are the calls of the source. The calls are words filed in the database; no cut-off is given here. Non-standard residues stand in square brackets, D forms with d. Residues, ends and D or L forms follow the SMILES beside them. ξ: configuration not given here. ξY = NC(Cc1ccc(O)cc1)C(=O)O; ξR = N=C(N)NCCCC(N)C(=O)O; ξN = NC(=O)CC(N)C(=O)O; ξI = CCC(C)C(N)C(=O)O; ξP = O=C(O)C1CCCN1

Columns and labels:
Escherichia coli [1] = assay: Bacteriostatic activity against Escherichia coli assessed as detachment of inner membrane from outer membrane by measuring a large void at 8 times MIC in full muller hinton medium by transmission electron microscopic analysis; assay type: functional, organism-based
Escherichia coli [2] = assay: Bacteriostatic activity against Escherichia coli assessed as small intracellular vesicles at 8 times MIC in full muller hinton medium by transmission electron microscopic analysis; assay type: functional, organism-based
Klebsiella pneumoniae [3] = assay: Bacteriostatic activity against Klebsiella pneumoniae assessed as membrane perturbation at 8 times MIC in full muller hinton medium by transmission electron microscopic analysis; assay type: functional, organism-based
Escherichia coli [4] = assay: Bacteriostatic activity against Escherichia coli at 8 times MIC in full muller hinton medium by Time-kill assay; assay type: functional, organism-based
Klebsiella pneumoniae [5] = assay: Bacteriostatic activity against Klebsiella pneumoniae assessed as small intracellular vesicles at 8 times MIC in full muller hinton medium by transmission electron microscopic analysis; assay type: functional, organism-based
Klebsiella pneumoniae [6] = assay: Bacteriostatic activity against Klebsiella pneumoniae assessed as detachment of inner membrane from outer membrane by measuring a large void at 8 times MIC in full muller hinton medium by transmission electron microscopic analysis; assay type: functional, organism-based
Klebsiella pneumoniae [7] = assay: Bacteriostatic activity against Klebsiella pneumoniae at 8 times MIC in full muller hinton medium by Time-kill assay; assay type: functional, organism-based
Escherichia coli [8] = assay: Bacteriostatic activity against Escherichia coli assessed as membrane perturbation at 8 times MIC in full muller hinton medium by transmission electron microscopic analysis; assay type: functional, organism-based
Pseudomonas aeruginosa [9] = assay: Antibacterial activity against multidrug-resistant Pseudomonas aeruginosa clinical isolate ZEM9A incubated for 16 to 20 hrs in full muller hinton medium by broth microdilution method; assay type: functional; conditions: time 16-20 hrs
Staphylococcus aureus [10] = assay: Antimicrobial activity against methicillin-resistant Staphylococcus aureus COL incubated for 16 to 20 hrs in full muller hinton medium by broth microdilution method; assay type: functional; conditions: time 16-20 hrs
Pseudomonas aeruginosa [11] = assay: Antibacterial activity against multidrug-resistant Pseudomonas aeruginosa PA14 4.18 harboring pmrB mutant incubated for 16 to 20 hrs in full muller hinton medium by broth microdilution method; assay type: functional; conditions: time 16-20 hrs
Pseudomonas aeruginosa [12] = assay: Antibacterial activity against multidrug-resistant Pseudomonas aeruginosa PA14 2P4 harboring pmrB mutant incubated for 16 to 20 hrs in full muller hinton medium by broth microdilution method; assay type: functional; conditions: time 16-20 hrs
[13] = Hemolytic activity in human RBC incubated for 4 hrs; assay type: toxicity, cell-based; conditions: erythrocyte
Pseudomonas aeruginosa [14] = assay: Antibacterial activity against multidrug-resistant Pseudomonas aeruginosa PA14 4.13 harboring phoQ mutant incubated for 16 to 20 hrs in full muller hinton medium by broth microdilution method; assay type: functional; conditions: time 16-20 hrs
Pseudomonas aeruginosa [15] = assay: Antibacterial activity against multidrug-resistant Pseudomonas aeruginosa PA14 incubated for 16 to 20 hrs in full muller hinton medium by broth microdilution method; assay type: functional; conditions: time 16-20 hrs
rRNA = assay: Binding affinity to [gamma32 P-ATP] labeled Escherichia coli MG1655 23S ribosomal RNA (5-CCCTTGGGACCTACTTC-3') at U2506 position assessed as increase in band intensity at 1 uM incubated for 2.5 hrs in full muller hinton medium by CMCT based gel electrophoresis; assay type: nucleic-acid assay
Klebsiella pneumoniae [16] = assay: Antimicrobial activity against Klebsiella pneumoniae NCTC 418 incubated for 16 to 20 hrs in full muller hinton medium by broth microdilution method; assay type: functional; conditions: time 16-20 hrs
Escherichia coli [17] = assay: Antimicrobial activity against Escherichia coli W3110 incubated for 16 to 20 hrs in full muller hinton medium by broth microdilution method; assay type: functional; conditions: time 16-20 hrs
Escherichia coli [18] = assay: Antimicrobial activity against Escherichia coli W3110 incubated for 16 to 20 hrs in 12.5 % muller hinton medium by broth microdilution method; assay type: functional; conditions: time 16-20 hrs
Staphylococcus aureus [19] = assay: Antimicrobial activity against methicillin-resistant Staphylococcus aureus COL incubated for 16 to 20 hrs in 12.5 % muller hinton medium by broth microdilution method; assay type: functional; conditions: time 16-20 hrs
Pseudomonas aeruginosa [20] = assay: Antimicrobial activity against Pseudomonas aeruginosa PAO1 incubated for 16 to 20 hrs in full muller hinton medium by broth microdilution method; assay type: functional; conditions: time 16-20 hrs
Klebsiella pneumoniae [21] = assay: Antimicrobial activity against Klebsiella pneumoniae NCTC 418 incubated for 16 to 20 hrs in 12.5 % muller hinton medium by broth microdilution method; assay type: functional; conditions: time 16-20 hrs
Acinetobacter baumannii = assay: Antimicrobial activity against Acinetobacter baumannii ATCC 19606 incubated for 16 to 20 hrs in full muller hinton medium by broth microdilution method; assay type: functional; conditions: time 16-20 hrs
Pseudomonas aeruginosa [22] = assay: Antimicrobial activity against Pseudomonas aeruginosa PAO1 incubated for 16 to 20 hrs in 12.5 % muller hinton medium by broth microdilution method; assay type: functional; conditions: time 16-20 hrs
Pseudomonas aeruginosa [23] = assay: Antibacterial activity against multidrug-resistant Pseudomonas aeruginosa clinical isolate ZEM-1A incubated for 16 to 20 hrs in full muller hinton medium by broth microdilution method; assay type: functional; conditions: time 16-20 hrs

Row | Molecule | Activity (Escherichia coli [1]) | Activity (Escherichia coli [2]) | Activity (Klebsiella pneumoniae [3]) | Activity (Escherichia coli [4]) | Activity (Klebsiella pneumoniae [5]) | Activity (Klebsiella pneumoniae [6]) | Activity (Klebsiella pneumoniae [7]) | Activity (Escherichia coli [8]) | MIC (Pseudomonas aeruginosa [9]) [µg/mL] | MIC (Staphylococcus aureus [10]) [µg/mL] | MIC (Pseudomonas aeruginosa [12]) [µg/mL] | MHC [13] [µg/mL] | MIC (Pseudomonas aeruginosa [15]) [µg/mL] | MIC (Klebsiella pneumoniae [16]) [µg/mL] | MIC (Pseudomonas aeruginosa [20]) [µg/mL] | MIC (Klebsiella pneumoniae [21]) [µg/mL] | MIC (Acinetobacter baumannii) [µg/mL] | MIC (Pseudomonas aeruginosa [22]) [µg/mL] | also measured
1 | CC[C@H]1OC(=O)[C@H](C)[C@@H](O[C@H]2C[C@@](C)(OC)[C@@H](O)[C@H](C)O2)[C@H](C)[C@@H](O[C@@H]2O[C@H](C)C[C@H](N(C)C)[C@H]2O)[C@](C)(O)C[C@@H](C)CN(C)[C@H](C)[C@@H](O)[C@]1(C)O | Active | Active | Active; Few Membrane Perturbation Observed | Active | Active | Active | Active | Active; Few Membrane Perturbation Observed |  |  |  |  |  |  |  |  |  |  | 
2 | CC[C@H](C)[C@H](NC(=O)[C@@H](CCCNC(=N)N)NC(=O)[C@H](CCCNC(=N)N)NC(=O)[C@@H]1CCCN1C(=O)[C@@H]1CCCN1C(=O)[C@H](CCCNC(=N)N)NC(=O)[C@@H]1CCCN1C(=O)[C@H](CCCNC(=N)N)NC(=O)[C@@H]1CCCN1C(=O)[C@H](CC(C)C)NC(=O)[C@H](Cc1ccc(O)cc1)NC(=O)[C@@H]1CCCN1C(=O)[C@@H]1CCCN1C(=O)[C@H](CCCCN)NC(=O)[C@H](CC(=O)O)NC(=O)[C@@H](N)C(C)C)C(=O)N[C@@H](Cc1ccc(O)cc1)C(=O)N[C@@H](CC(N)=O)C(=O)N[C@H](CCCNC(=N)N)C(N)=O (H-VDKPPYLPRPRPPR[dR]IYN[dR]-NH2) |  |  |  |  |  |  |  |  | > 64 | > 64 | > 64 | > 1000 | > 32 |  |  |  |  |  | MIC (Pseudomonas aeruginosa [11]): > 32 µg/mL; MIC (Pseudomonas aeruginosa [14]): > 32 µg/mL
3 | CC[C@@H](C)[C@@H](NC(=O)[C@@H](CCCNC(=N)N)NC(=O)[C@H](CCCNC(=N)N)NC(=O)[C@@H]1CCCN1C(=O)[C@@H]1CCCN1C(=O)[C@H](CCCNC(=N)N)NC(=O)[C@@H]1CCCN1C(=O)[C@H](CCCNC(=N)N)NC(=O)[C@@H]1CCCN1C(=O)[C@H](CC(C)C)NC(=O)[C@H](Cc1ccc(O)cc1)NC(=O)[C@@H]1CCCN1C(=O)[C@@H]1CCCN1C(=O)[C@H](CCCCN)NC(=O)[C@H](CC(=O)O)NC(=O)[C@@H](N)C(C)C)C(=O)N[C@H](Cc1ccc(O)cc1)C(=O)N[C@H](CC(N)=O)C(=O)N[C@H](CCCNC(=N)N)C(N)=O (H-VDKPPYLPRPRPPR[dR][dI][dY][dN][dR]-NH2) | Active | Active | Active; Few Membrane Perturbation Observed | Active | Active | Active | Active | Active; Few Membrane Perturbation Observed | > 64 | > 64 | > 64 | > 1000 | > 64 |  |  |  |  |  | Activity (rRNA): Active
4 | CCC(C)C(NC(=O)C(CCCNC(=N)N)NC(=O)C(CCCNC(=N)N)NC(=O)[C@@H]1CCCN1C(=O)[C@@H]1CCCN1C(=O)[C@H](CCCNC(=N)N)NC(=O)[C@@H]1CCCN1C(=O)[C@H](CCCNC(=N)N)NC(=O)[C@@H]1CCCN1C(=O)[C@H](CC(C)C)NC(=O)[C@H](Cc1ccc(O)cc1)NC(=O)[C@@H]1CCCN1C(=O)[C@@H]1CCCN1C(=O)[C@H](CCCCN)NC(=O)[C@H](CC(=O)O)NC(=O)[C@@H](N)C(C)C)C(=O)NC(Cc1ccc(O)cc1)C(=O)NC(CC(N)=O)C(=O)NC(CCCNC(=N)N)C(N)=O (stereo partly specified) (H-VDKPPYLPRPRPP[ξR][ξR][ξI][ξY][ξN][ξR]-NH2) |  |  |  |  |  |  |  |  |  | > 64 |  | > 1000 |  | 4 (≈ 1.67 µM) |  |  |  |  | MIC (Escherichia coli [17]): 8 µg/mL (≈ 3.35 µM); MIC (Escherichia coli [18]): 1 µg/mL (≈ 0.418 µM); MIC (Staphylococcus aureus [19]): > 16 µg/mL
5 | CC[C@H](C)[C@H](NC(=O)[C@H](CCCNC(=N)N)NC(=O)[C@H](CCCNC(=N)N)NC(=O)[C@@H]1CCCN1C(=O)[C@@H]1CCCN1C(=O)[C@H](CCCNC(=N)N)NC(=O)[C@@H]1CCCN1C(=O)[C@H](CCCNC(=N)N)NC(=O)[C@@H]1CCCN1C(=O)[C@H](CC(C)C)NC(=O)[C@H](Cc1ccc(O)cc1)NC(=O)[C@H]1CCCN1C(=O)[C@@H]1CCCN1C(=O)[C@H](CCCCN)NC(=O)[C@H](CC(=O)O)NC(=O)[C@@H](N)C(C)C)C(=O)N[C@@H](Cc1ccc(O)cc1)C(=O)N[C@@H](CC(N)=O)C(=O)N[C@@H](CCCNC(=N)N)C(N)=O (H-VDKP[dP]YLPRPRPPRRIYNR-NH2) |  |  |  |  |  |  |  |  |  | > 64 |  | > 1000 |  | > 64 | > 64 | > 16 | > 64 | > 16 | 
6 | CC[C@H](C)[C@H](NC(=O)[C@H](CCCNC(=N)N)NC(=O)[C@H](CCCNC(=N)N)NC(=O)[C@@H]1CCCN1C(=O)[C@@H]1CCCN1C(=O)[C@H](CCCNC(=N)N)NC(=O)[C@@H]1CCCN1C(=O)[C@H](CCCNC(=N)N)NC(=O)[C@@H]1CCCN1C(=O)[C@H](CC(C)C)NC(=O)[C@H](Cc1ccc(O)cc1)NC(=O)[C@H]1CCCN1C(=O)[C@H]1CCCN1C(=O)[C@H](CCCCN)NC(=O)[C@H](CC(=O)O)NC(=O)[C@@H](N)C(C)C)C(=O)N[C@@H](Cc1ccc(O)cc1)C(=O)N[C@@H](CC(N)=O)C(=O)N[C@@H](CCCNC(=N)N)C(N)=O (H-VDK[dP][dP]YLPRPRPPRRIYNR-NH2) |  |  |  |  |  |  |  |  |  | > 64 |  | > 1000 |  | > 64 | > 64 | > 16 | > 64 | > 16 | MIC (Staphylococcus aureus [19]): > 64 µg/mL
7 | CC[C@H](C)[C@H](NC(=O)[C@H](CCCNC(=N)N)NC(=O)[C@H](CCCNC(=N)N)NC(=O)[C@@H]1CCCN1C(=O)[C@@H]1CCCN1C(=O)[C@H](CCCNC(=N)N)NC(=O)[C@@H]1CCCN1C(=O)[C@H](CCCNC(=N)N)NC(=O)[C@@H]1CCCN1C(=O)[C@H](CC(C)C)NC(=O)[C@H](Cc1ccc(O)cc1)NC(=O)C1CCCN1C(=O)C1CCCN1C(=O)[C@H](CCCCN)NC(=O)[C@H](CC(=O)O)NC(=O)[C@@H](N)C(C)C)C(=O)N[C@@H](Cc1ccc(O)cc1)C(=O)N[C@@H](CC(N)=O)C(=O)N[C@@H](CCCNC(=N)N)C(N)=O (stereo partly specified) (H-VDK[ξP][ξP]YLPRPRPPRRIYNR-NH2) |  |  |  |  |  |  |  |  |  | > 64 |  | > 1000 |  |  | > 64 | 8 (≈ 3.35 µM) |  | > 16 | MIC (Escherichia coli [18]): 4 µg/mL (≈ 1.67 µM)
8 | CC(C)C[C@H](NC(=O)[C@H](CC(C)C)NC(=O)[C@H](CC(C)C)NC(=O)[C@@H](CCCCN)NC(=O)[C@H](CC(C)C)NC(=O)[C@H](CC(C)C)NC(=O)[C@@H](CCCCN)NC(=O)[C@H](CC(C)C)NC(=O)[C@H](CC(C)C)NC(=O)[C@@H](CCCCN)NC(=O)[C@H](N)CCCCN)C(N)=O (H-[dK][dK]LL[dK]LL[dK]LLL-NH2) | Active | Active | Active; Few Membrane Perturbation Observed | Active | Active | Active | Active | Active; Few Membrane Perturbation Observed |  |  |  | 1000 |  | 8 (≈ 6.05 µM) | 8 (≈ 6.05 µM) |  | 2.4 (≈ 1.82 µM) |  | 
9 | H-VDKPPYLPRPRPPRRIYNR-NH2 [ONCOCIN] | Active | Active | Active; Few Membrane Perturbation Observed | Active | Active | Active | Active | Active; Few Membrane Perturbation Observed | > 64 | > 64 | > 64 | > 1000 | > 64 |  | > 64 |  |  |  | MIC (Pseudomonas aeruginosa [11]): > 64 µg/mL; MIC (Pseudomonas aeruginosa [23]): > 64 µg/mL; Activity (rRNA): Active; MIC (Pseudomonas aeruginosa [14]): > 64 µg/mL
